We go through four compounds from patent publication US11504425B2, “Amphiphilic oligodeoxynucleotide conjugates as adjuvant enhancers” (WAYNE STATE UNIVERSITY, priority 2019, dated 2022).

“Also recorded” adds a separate entry of the source. Oligonucleotides are written 5' to 3', each unit as a sugar letter and its base; * is a phosphorothioate linkage, no mark a phosphodiester; rarer units and linkages stand in square brackets, end groups in braces. Plain capitals give the bases only. {Lipid} = lipid portion of the amphiphilic conjugate (lipid variable, as described in specification); d = 2'-deoxy (DNA)

In data set [1] the test system is TLR7-mediated NF-κB activation in Raw-Blue reporter cells. Description: Raw-Blue NF-κB/SEAP reporter stimulation with TLR7 ligands. To be noted: for IMQ-induced NF-κB activation (SEAP) in the presence of the ODN: 2 μM IMQ + 1 μM ODN, FBS-supplemented medium. The class given is cell-based, murine. The procedure:
(§1) HEK-Blue™-mTLR7, mTLR8, hTLR7, hTLR8, and RAW-Blue™ cells were purchased from InvivoGen and were used to evaluate bioactivities of lipo ODNs and TLR 7/8 ligands in vitro. All these cell lines were cultured with DMEM supplemented with 10% FBS, 1% P/S and 100 μg/mL Normocin at 37° C. with 5% CO2. […] After incubating for 24 h, SEAP levels were quantified by developing supernatants with QuantiBlue™ substrate for 1 h and reading absorption at 620 nm, following manufacturer's instructions.
Following subcutaneous injection, lipid-modified oligonucleotides efficiently accumulated in the draining lymph nodes by binding and trafficking with endogenous albumin protein (Liu et al., Nature 507, 519-522, 2014; Yu et al., Pharmaceutical Res. 35: 56, 2018). Inspired by that prior work, the current study was aimed to take advantage of lipid functionalization in other oligonucleotide-based TLR inhibitors to further expand the pool of lipo suppressive ODNs. The therapeutic efficacy of lipid-modified IRS 954 in suppressing TLR7-mediated immune activation and alleviating the severity of SLE was investigated. Imiquimod (IMQ; FIG. 1A) was first used to stimulate TLR7-mediated immune activation in Raw-Blue reporter cells. For the initial experiments, Raw Blue cells-a murine RAW 264.7 macrophage cell line which expresses secreted embryonic alkaline phosphatase (SEAP) under the control of an NF-κB and AP-1, were used. Raw Blue cells express many toll-like receptors, including TLR-7, TLR-8, and TLR-9. The immunosuppressive capability of unmodified or lipo IRS 954 was determined by quantifying the level of TLR7-induced NF-κB activation.

A further data set concerns the target T1, mouse TLR7 (mTLR7) (Mus musculus, UniProt P58681).
T1 construct: host or cells: HEK-Blue-mTLR7 (HEK293)
T1 sequence (P58681 27-1050): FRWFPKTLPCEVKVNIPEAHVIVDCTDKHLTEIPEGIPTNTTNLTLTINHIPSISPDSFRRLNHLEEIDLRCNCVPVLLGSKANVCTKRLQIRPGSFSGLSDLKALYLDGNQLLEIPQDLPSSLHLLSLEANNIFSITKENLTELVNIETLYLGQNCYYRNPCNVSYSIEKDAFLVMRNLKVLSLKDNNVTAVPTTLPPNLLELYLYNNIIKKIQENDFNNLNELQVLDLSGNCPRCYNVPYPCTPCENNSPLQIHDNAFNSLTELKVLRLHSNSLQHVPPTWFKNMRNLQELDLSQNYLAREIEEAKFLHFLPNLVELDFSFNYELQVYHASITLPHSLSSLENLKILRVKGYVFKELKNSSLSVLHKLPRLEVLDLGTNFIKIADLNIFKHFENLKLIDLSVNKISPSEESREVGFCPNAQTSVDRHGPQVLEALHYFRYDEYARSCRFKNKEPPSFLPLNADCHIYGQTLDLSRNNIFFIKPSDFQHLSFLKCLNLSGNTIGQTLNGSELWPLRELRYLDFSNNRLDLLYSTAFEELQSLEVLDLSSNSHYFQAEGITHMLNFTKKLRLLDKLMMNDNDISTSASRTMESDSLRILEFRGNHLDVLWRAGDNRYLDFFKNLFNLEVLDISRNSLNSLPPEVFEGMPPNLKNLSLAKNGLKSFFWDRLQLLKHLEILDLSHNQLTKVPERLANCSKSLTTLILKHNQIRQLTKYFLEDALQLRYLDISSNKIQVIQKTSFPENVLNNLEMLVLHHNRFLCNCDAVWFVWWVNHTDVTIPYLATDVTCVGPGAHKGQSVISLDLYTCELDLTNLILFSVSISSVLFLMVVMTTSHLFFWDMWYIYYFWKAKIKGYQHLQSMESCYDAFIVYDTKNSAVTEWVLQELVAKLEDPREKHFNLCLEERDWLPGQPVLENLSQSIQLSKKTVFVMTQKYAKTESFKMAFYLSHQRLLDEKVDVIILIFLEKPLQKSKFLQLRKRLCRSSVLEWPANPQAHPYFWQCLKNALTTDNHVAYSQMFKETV
Description: HEK mTLR7 reporter cells NF-κB/SEAP. To be noted: soluble ligand alone, 24 h. The format is cell-based. The procedure:
as §1
Raw Blue cells which respond to both murine TLR-7 and TLR-8 are also included to assess the overall modulatory effect. half-maximal effective concentration (EC50) and potency of several classic TLR7/8 ligands were evaluated in murine TLR7 and TLR8 reporter cells.

Another data set concerns the target T2, human TLR7 (hTLR7) (Homo sapiens, UniProt Q9NYK1).
T2 construct: host or cells: HEK-Blue-hTLR7 (HEK293)
T2 sequence (Q9NYK1 27-1049): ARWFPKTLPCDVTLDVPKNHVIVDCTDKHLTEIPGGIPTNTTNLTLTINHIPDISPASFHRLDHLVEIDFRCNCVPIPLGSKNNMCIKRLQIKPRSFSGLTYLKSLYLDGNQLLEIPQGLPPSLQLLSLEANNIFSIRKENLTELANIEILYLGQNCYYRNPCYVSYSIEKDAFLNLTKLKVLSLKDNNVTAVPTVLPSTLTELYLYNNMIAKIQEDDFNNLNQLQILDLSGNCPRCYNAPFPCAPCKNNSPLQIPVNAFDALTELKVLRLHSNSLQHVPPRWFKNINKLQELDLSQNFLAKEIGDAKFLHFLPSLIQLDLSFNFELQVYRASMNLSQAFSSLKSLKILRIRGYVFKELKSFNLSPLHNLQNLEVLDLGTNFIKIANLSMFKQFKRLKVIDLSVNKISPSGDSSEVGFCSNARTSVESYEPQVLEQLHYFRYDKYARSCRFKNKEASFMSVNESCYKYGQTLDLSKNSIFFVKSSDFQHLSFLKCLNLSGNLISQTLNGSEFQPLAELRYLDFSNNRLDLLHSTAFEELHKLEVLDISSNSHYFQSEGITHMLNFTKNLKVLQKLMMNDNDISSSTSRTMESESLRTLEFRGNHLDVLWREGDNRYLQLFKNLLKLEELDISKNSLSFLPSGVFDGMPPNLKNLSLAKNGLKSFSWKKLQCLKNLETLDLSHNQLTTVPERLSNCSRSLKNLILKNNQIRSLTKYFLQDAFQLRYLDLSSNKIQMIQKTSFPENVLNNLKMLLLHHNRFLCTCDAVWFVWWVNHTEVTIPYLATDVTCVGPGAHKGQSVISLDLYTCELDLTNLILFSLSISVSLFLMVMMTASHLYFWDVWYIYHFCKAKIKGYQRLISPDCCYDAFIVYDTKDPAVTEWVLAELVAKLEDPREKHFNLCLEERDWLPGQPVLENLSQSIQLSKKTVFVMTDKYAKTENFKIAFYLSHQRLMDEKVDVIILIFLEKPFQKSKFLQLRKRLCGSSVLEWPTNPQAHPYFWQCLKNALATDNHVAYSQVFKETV
Description: HEK hTLR7 reporter cells NF-κB/SEAP. The class given is cell-based. Particulars: 2 μM IMQ + 1 μM ODN, 24 h. The procedure: as §1
(§2) HEK293 cells transfected with human TLR7 or 8 were used. The cells were stimulated with IMQ in the presence of several inhibitory oligonucleotides reported in the literature. […] In contrast, all the unmodified ODNs maintained their inhibitory function, reducing the NF-κB secretion to basal levels (FIG. 8A). We then plotted the IMQ dose response curve in human TLR-7 transfected HEK293 cells.

The next data set deals with T3, human TLR8 (hTLR8) (Homo sapiens, UniProt Q9NR97).
T3 construct: host or cells: HEK-Blue-hTLR8 (HEK293)
T3 sequence (Q9NR97 27-1041): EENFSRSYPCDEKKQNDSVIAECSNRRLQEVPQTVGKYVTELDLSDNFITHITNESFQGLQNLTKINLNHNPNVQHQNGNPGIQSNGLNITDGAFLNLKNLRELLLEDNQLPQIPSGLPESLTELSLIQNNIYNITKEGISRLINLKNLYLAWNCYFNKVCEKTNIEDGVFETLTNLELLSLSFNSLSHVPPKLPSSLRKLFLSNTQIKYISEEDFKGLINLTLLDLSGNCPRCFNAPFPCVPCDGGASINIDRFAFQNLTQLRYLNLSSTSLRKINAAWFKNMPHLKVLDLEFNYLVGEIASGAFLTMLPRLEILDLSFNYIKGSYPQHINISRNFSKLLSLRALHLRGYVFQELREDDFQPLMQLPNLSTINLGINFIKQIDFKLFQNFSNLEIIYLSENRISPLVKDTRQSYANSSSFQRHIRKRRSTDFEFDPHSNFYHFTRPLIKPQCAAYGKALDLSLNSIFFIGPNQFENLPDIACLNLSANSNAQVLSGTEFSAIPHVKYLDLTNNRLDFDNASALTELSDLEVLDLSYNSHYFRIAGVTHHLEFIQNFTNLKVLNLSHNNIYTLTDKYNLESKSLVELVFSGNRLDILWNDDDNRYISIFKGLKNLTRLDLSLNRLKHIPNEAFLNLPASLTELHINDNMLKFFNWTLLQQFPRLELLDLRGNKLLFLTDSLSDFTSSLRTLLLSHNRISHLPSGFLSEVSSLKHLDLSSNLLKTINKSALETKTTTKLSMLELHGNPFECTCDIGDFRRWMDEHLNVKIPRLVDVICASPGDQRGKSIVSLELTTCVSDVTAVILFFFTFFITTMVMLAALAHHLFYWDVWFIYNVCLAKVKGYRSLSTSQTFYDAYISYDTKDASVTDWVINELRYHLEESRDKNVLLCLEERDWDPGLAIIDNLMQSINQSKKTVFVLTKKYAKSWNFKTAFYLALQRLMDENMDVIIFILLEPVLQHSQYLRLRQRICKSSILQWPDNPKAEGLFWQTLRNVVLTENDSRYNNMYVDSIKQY
Description: HEK hTLR8 reporter cells NF-κB/SEAP. The format is cell-based. Particulars: 1 μg/ml or indicated concentrations TLR8-506 + 1 μM ODN, 24 h. The procedure: as §1, §2

For the compound `CC(C)Cn1cnc2c(N)nc3ccccc3c21` [IMQ, imiquimod], the “NF-κB activation of Raw Blue cells by the ligand alone” value in data set [1] (ligand alone, 24 h) is recorded as “resulted in secretion of NF-κB”. In addition, the “mTLR7 activation by the ligand alone” value on mouse TLR7 (mTLR7) is on record as “activated mTLR-7 at different concentrations”.

As to “5′-L-TGCTCCTGGAGGGGTTGT-3′ (DNA NTGCTCCTGGAGGGGTTGT; 5' lipid modification; Lipid-modified synthetic oligonucleotide; (1)..(1) n=placeholder indicative of lipid portion of conjugate, as described in specification; lipid is variable, depending on embodiment(s)) [lipo IRS 954]”, the “IMQ-induced NF-κB activation (SEAP) in the presence of the ODN” value in data set [1] (24 h) is “enhanced TLR7-mediated activation; also recorded: more than twofold increase in TLR-7-mediated activation”. The “activity of the ODN alone in Raw Blue cells” value in data set [1] (without IMQ) was “no activity”. Besides, the “IMQ-mediated NF-κB stimulation in hTLR7 cells in the presence of the ODN” value with human TLR7 (hTLR7) is listed as “markedly enhanced IMQ-mediated NF-κB stimulation”. For the same compound, the “TLR8-506 stimulation of hTLR8 cells in the presence of the ODN” value with human TLR8 (hTLR8) is given as “partially inhibited the TLR-8 signaling”.

For “lipo ODN 2087: lipid modified ODN 2087 (5′-TCCTGAGCTTGAAGT-3′) (DNA {Lipid}-dT*dC*dC*dT*dG*dA*dG*dC*dT*dT*dG*dA*dA*dG*dT)”, the “IMQ-mediated NF-κB stimulation in hTLR7 cells in the presence of the ODN” value with human TLR7 (hTLR7) was “markedly enhanced IMQ-mediated NF-κB stimulation”. In the data set with human TLR8 (hTLR8), the “TLR8-506 stimulation of hTLR8 cells in the presence of the ODN” value was “partially inhibited the TLR-8 signaling”.

On to “5′-TGCTCCTGGAGGGGTTGT-3′ (DNA dT*dG*dC*dT*dC*dC*dT*dG*dG*dA*dG*dG*dG*dG*dT*dT*dG*dT) [IRS 954]”, for which the “IMQ-induced NF-κB activation (SEAP) in the presence of the ODN” value in data set [1] (24 h) is recorded as “no detectable NF-κB was observed”.
